Assay results published in ChEMBL document CHEMBL4616725, “Global PROTAC Toolbox for Degrading BCR-ABL Overcomes Drug-Resistant Mutants and Adverse Effects” (J Med Chem, 2020).
The source made the active and inactive calls. The calls are words filed in the database; no cut-off is given here.

Key:
[1] = biological target: Protein cereblon/Tyrosine-protein kinase ABL1/Breakpoint cluster region protein (Homo sapiens, UniProt P00519+P11274+Q96SW2); experiment: Protac activity at Cereblon/BCR/ABL in human K562 cells assessed as induction of BCR-ABL degradation incubated for 32 to 48 hrs by Western blot analysis; assay type: cell-based
K562 = experiment: Antiproliferative activity against human K562 cells incubated for 3 days by CCK8 assay; assay type: functional, cell-based; conditions: K562, 72 h
[2] = biological target: Protein cereblon/Tyrosine-protein kinase ABL1/Breakpoint cluster region protein (Homo sapiens, UniProt P00519+P11274+Q96SW2, T315I); assay type: cell-based, BaF3
[3] = system: Protein cereblon/Tyrosine-protein kinase ABL1/Breakpoint cluster region protein (Homo sapiens), P00519+P11274+Q96SW2 [T315I]; experiment: Protac activity at Cereblon/BCR/ABL T315I mutant (unknown origin) expressed in mouse BaF3 cells assessed as reduction in BCR-ABL T315I mutant protein levels at 3 to 30000 nM incubated for 32 hrs by Western blot analysis; assay type: cell-based
BaF3 = experiment: Antiproliferative activity against wild type mouse BA/F3 cells incubated for 3 days by CCK8 assay; assay type: cell-based; conditions: BaF3, 72 h
[4] = system: Protein cereblon/Tyrosine-protein kinase ABL1/Breakpoint cluster region protein (Homo sapiens), P00519+P11274+Q96SW2 [T315I]; experiment: Protac activity at Cereblon/BCR/ABL T315I mutant (unknown origin) expressed in mouse BaF3 cells assessed as reduction in BCR-ABL T315I mutant protein levels at 3 to 30000 nM incubated for 48 hrs by Western blot analysis; assay type: cell-based
H9c2 = experiment: Antiproliferative activity against rat H9C2 cells incubated for 3 days by CCK8 assay; assay type: cell-based; conditions: H9c2, 72 h
HUVEC [5] = experiment: Antiproliferative activity against human HUVEC incubated for 3 days by CCK8 assay; assay type: cell-based; conditions: 72 h
HUVEC [6] = experiment: Toxicity in HUVEC assessed as inhibition of tube formation at 200 nM incubated for 20 hrs by optical microscopy based matrigel-based assay; assay type: cell-based; conditions: human, 0.2 µM
[7] = system: Protein cereblon/Tyrosine-protein kinase ABL1/Breakpoint cluster region protein (Homo sapiens), P00519+P11274+Q96SW2 [T315I]; experiment: Protac activity at Cereblon/BCR/ABL T315I mutant (unknown origin) expressed in mouse BaF3 cells assessed as reduction in BCR-ABL T315I mutant protein levels at 1 uM incubated for 48 hrs by Western blot analysis; assay type: cell-based

SMILES	DC50 [1] [nM]	EC50 [2] [nM]	other results
Cc1nc(Nc2ncc(C(=O)Nc3c(C)cccc3Cl)s2)cc(N2CCN(C(=O)CCCc3cn(CCOCCOCCOCCNc4cccc5c4C(=O)N(C4CCC(=O)NC4=O)C5=O)nn3)CC2)n1 (stereo not given)	56	–	–
Cc1ccc(NC(=O)c2ccc(CN3CCN(C)CC3)cc2)cc1Nc1nccc(-c2cccnc2)n1 [IMATINIB]	–	–	IC50 (K562): 76.2 nM
C#CCCCC(=O)N1CCN(c2cc(Nc3ncc(/C=C/c4ccc(F)c(F)c4)s3)nc(C)n2)CC1	–	570	–
O=C1CCC(N2C(=O)c3cccc(NCCOCCOCCOCCn4cc(CCCC(=O)N[C@@H]5CCN(c6ncc(C(=O)Nc7ccc(OC(F)(F)Cl)cc7)cc6-c6cc[nH]n6)C5)nn4)c3C2=O)C(=O)N1 (stereo not given in full)	200	1020	Activity [3]: Active; EC50 (BaF3): > 10000 nM; IC50 (K562): 121 nM
Cc1ccc(C(=O)Nc2ccc(CN3CCN(C(=O)CCCc4cn(CCOCCOCCOCCOCCNc5cccc6c5C(=O)N(C5CCC(=O)NC5=O)C6=O)nn4)CC3)c(C(F)(F)F)c2)cc1C#Cc1cnc2cccnn12 (stereo not given)	70	–	–
O=C1CCC(N2C(=O)c3cccc(NCCOCCOCCn4cc(CCCC(=O)N[C@@H]5CCN(c6ncc(C(=O)Nc7ccc(OC(F)(F)Cl)cc7)cc6-c6cc[nH]n6)C5)nn4)c3C2=O)C(=O)N1 (stereo not given in full)	300	–	–
C#CCCCC(=O)N1CCN(c2cc(Nc3ncc(/C=C/c4cccc(O)c4)s3)nc(C)n2)CC1	–	1300	–
C#CCCCC(=O)N1CCN(c2cc(Nc3ncc(/C=C/c4cccc(OC)c4)s3)nc(C)n2)CC1	–	> 10000	–
Cc1ccc(C(=O)Nc2ccc(CN3CCN(C(=O)CCCc4cn(CCOCCNc5cccc6c5C(=O)N(C5CCC(=O)NC5=O)C6=O)nn4)CC3)c(C(F)(F)F)c2)cc1C#Cc1cnc2cccnn12 (stereo not given)	70	–	–
Cc1ccc(C(=O)Nc2ccc(CN3CCN(C(=O)CCCc4cn(CCNc5cccc6c5C(=O)N(C5CCC(=O)NC5=O)C6=O)nn4)CC3)c(C(F)(F)F)c2)cc1C#Cc1cnc2cccnn12 (stereo not given)	625	–	–
C#CCCCC(=O)N1CCN(c2cc(Nc3ncc(C)s3)nc(C)n2)CC1	–	> 10000	–
C#CCCCC(=O)N1CCN(c2cc(Nc3ncc(/C=C/c4cccc(F)c4)s3)nc(C)n2)CC1	–	770	–
O=C1CCC(N2C(=O)c3cccc(NCCOCCn4cc(CCCC(=O)N[C@@H]5CCN(c6ncc(C(=O)Nc7ccc(OC(F)(F)Cl)cc7)cc6-c6cc[nH]n6)C5)nn4)c3C2=O)C(=O)N1 (stereo not given in full)	400	–	–
Cc1ccc(NC(=O)c2ccc(CN3CCN(C(=O)CCCc4cn(CCOCCOCCOCCNc5cccc6c5C(=O)N(C5CCC(=O)NC5=O)C6=O)nn4)CC3)cc2)cc1Nc1nccc(-c2cccnc2)n1 (stereo not given)	> 10000	–	–
Cc1ccc(NC(=O)c2ccc(CN3CCN(C(=O)CCCc4cn(CCOCCOCCNc5cccc6c5C(=O)N(C5CCC(=O)NC5=O)C6=O)nn4)CC3)cc2)cc1Nc1nccc(-c2cccnc2)n1 (stereo not given)	> 10000	–	–
Cc1ccc(C(=O)Nc2ccc(CN3CCN(C(=O)CCCc4cn(CCOCCOCCNc5cccc6c5C(=O)N(C5CCC(=O)NC5=O)C6=O)nn4)CC3)c(C(F)(F)F)c2)cc1C#Cc1cnc2cccnn12 (stereo not given)	70	–	–

SMILES	DC50 [1] [nM]	EC50 [2] [nM]	other results
Cc1ccc(NC(=O)c2ccc(CN3CCN(C(=O)CCCc4cn(CCOCCOCCOCCOCCNc5cccc6c5C(=O)N(C5CCC(=O)NC5=O)C6=O)nn4)CC3)cc2)cc1Nc1nccc(-c2cccnc2)n1 (stereo not given)	> 10000	–	–
Cc1ccc(NC(=O)c2ccc(CN3CCN(C(=O)CCCc4cn(CCNc5cccc6c5C(=O)N(C5CCC(=O)NC5=O)C6=O)nn4)CC3)cc2)cc1Nc1nccc(-c2cccnc2)n1 (stereo not given)	> 10000	–	–
C#CCCCC(=O)N1CCN(c2cc(Nc3ncc(/C=C/c4cc(F)cc(F)c4)s3)nc(C)n2)CC1	–	1500	–
Cc1nc(Nc2ncc(C(=O)Nc3c(C)cccc3Cl)s2)cc(N2CCN(C(=O)CCCc3cn(CCOCCOCCOCCOCCNc4cccc5c4C(=O)N(C4CCC(=O)NC4=O)C5=O)nn3)CC2)n1 (stereo not given)	10	> 10000	Activity [4]: inactive; EC50 (BaF3): > 10000 nM; IC50 (K562): 9.2 nM
Cc1ccc(C(=O)Nc2ccc(CN3CCN(C)CC3)c(C(F)(F)F)c2)cc1C#Cc1cnc2cccnn12 [PONATINIB]	–	–	EC50 (H9c2): 379 nM; EC50 (HUVEC [5]): 515 nM; EC50 (BaF3): 438 nM; Activity (HUVEC [6]): Toxic; IC50 (K562): 0.3 nM
C#CCCCC(=O)N1CCN(c2cc(Nc3ncc(/C=C/c4cccc(C)c4)s3)nc(C)n2)CC1	–	450	–
Cc1nc(Nc2ncc(C(=O)Nc3c(C)cccc3Cl)s2)cc(N2CCN(C(=O)CCCc3cn(CCOCCOCCNc4cccc5c4C(=O)N(C4CCC(=O)NC4=O)C5=O)nn3)CC2)n1 (stereo not given)	20	–	–
O=C1CCC(N2C(=O)c3cccc(NCCn4cc(CCCC(=O)N[C@@H]5CCN(c6ncc(C(=O)Nc7ccc(OC(F)(F)Cl)cc7)cc6-c6cc[nH]n6)C5)nn4)c3C2=O)C(=O)N1 (stereo not given in full)	> 625	–	–
C#CCCCC(=O)N1CCN(c2cc(Nc3ncc(/C=C/c4ccc(F)cc4)s3)nc(C)n2)CC1	–	3200	–
Cc1cccc(/C=C/c2cnc(Nc3cc(N4CCN(C(=O)CCCc5cn(CCOCCOCCOCCOCCNc6cccc7c6C(=O)N(C6CCC(=O)NC6=O)C7=O)nn5)CC4)nc(C)n3)s2)c1 (stereo not given)	–	6100	Activity [4]: Active; EC50 (BaF3): > 10000 nM; Activity [7]: Active
Cc1nc(Nc2ncc(C(=O)Nc3c(C)cccc3Cl)s2)cc(N2CCN(C(=O)CCCc3cn(CCOCCNc4cccc5c4C(=O)N(C4CCC(=O)NC4=O)C5=O)nn3)CC2)n1 (stereo not given)	56	–	–
Cc1ccc(NC(=O)c2ccc(CN3CCN(C(=O)CCCc4cn(CCOCCNc5cccc6c5C(=O)N(C5CCC(=O)NC5=O)C6=O)nn4)CC3)cc2)cc1Nc1nccc(-c2cccnc2)n1 (stereo not given)	> 10000	–	–
Cc1nc(Nc2ncc(C(=O)Nc3c(C)cccc3Cl)s2)cc(N2CCN(CCCCCCOCCOCCOCCCCCC(=O)Nc3cccc4c3C(=O)N(C3CCC(=O)NC3=O)C4=O)CC2)n1 (stereo not given)	–	–	Activity [4]: inactive; EC50 (BaF3): > 10000 nM; IC50 (K562): 8 nM
Cc1nc(Nc2ncc(C(=O)Nc3c(C)cccc3Cl)s2)cc(N2CCN(C(=O)CCCc3cn(CCNc4cccc5c4C(=O)N(C4CCC(=O)NC4=O)C5=O)nn3)CC2)n1 (stereo not given)	56	–	–
O=C1CCC(N2C(=O)c3cccc(NCCOCCOCCOCCOCCn4cc(CCCC(=O)N[C@@H]5CCN(c6ncc(C(=O)Nc7ccc(OC(F)(F)Cl)cc7)cc6-c6cc[nH]n6)C5)nn4)c3C2=O)C(=O)N1 (stereo not given in full)	500	–	–
Cc1nc(Nc2ncc(C(=O)Nc3c(C)cccc3Cl)s2)cc(N2CCN(CCO)CC2)n1 [DASATINIB]	–	–	EC50 (BaF3): > 10000 nM; IC50 (K562): 0.19 nM
